Data set [1] relates to Rattus norvegicus. Nature of the data set: Effect on electrocardiogram in anaesthetized Wistar rat assessed as change in QRS interval at 1 mg/kg, iv after 15 mins by electrocardiography. It is filed as functional.
A short description of data set [2]: Acute toxicity in iv dosed anaesthetized Wistar rat. In kind it is organism-based. The conditions noted are these: in vivo.
Data set [3] deals with T1, Adrenergic receptor alpha-1 (Rattus norvegicus, UniProt P15823+P23944+P43140).
T1 sequence (P15823 whole entry): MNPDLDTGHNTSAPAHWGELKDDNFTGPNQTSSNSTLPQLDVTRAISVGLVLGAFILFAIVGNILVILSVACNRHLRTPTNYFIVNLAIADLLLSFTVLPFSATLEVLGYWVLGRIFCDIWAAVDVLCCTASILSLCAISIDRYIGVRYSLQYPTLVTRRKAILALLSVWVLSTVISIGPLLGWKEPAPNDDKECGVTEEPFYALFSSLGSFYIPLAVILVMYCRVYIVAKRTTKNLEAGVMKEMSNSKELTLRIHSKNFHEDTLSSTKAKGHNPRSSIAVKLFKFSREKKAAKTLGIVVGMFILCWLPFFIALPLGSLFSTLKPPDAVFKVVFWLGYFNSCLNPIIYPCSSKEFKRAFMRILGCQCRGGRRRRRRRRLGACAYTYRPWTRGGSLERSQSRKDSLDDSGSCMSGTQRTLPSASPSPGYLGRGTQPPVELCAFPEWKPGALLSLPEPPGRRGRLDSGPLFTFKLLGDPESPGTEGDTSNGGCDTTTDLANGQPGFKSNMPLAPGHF
T1 sequence (P23944 whole entry): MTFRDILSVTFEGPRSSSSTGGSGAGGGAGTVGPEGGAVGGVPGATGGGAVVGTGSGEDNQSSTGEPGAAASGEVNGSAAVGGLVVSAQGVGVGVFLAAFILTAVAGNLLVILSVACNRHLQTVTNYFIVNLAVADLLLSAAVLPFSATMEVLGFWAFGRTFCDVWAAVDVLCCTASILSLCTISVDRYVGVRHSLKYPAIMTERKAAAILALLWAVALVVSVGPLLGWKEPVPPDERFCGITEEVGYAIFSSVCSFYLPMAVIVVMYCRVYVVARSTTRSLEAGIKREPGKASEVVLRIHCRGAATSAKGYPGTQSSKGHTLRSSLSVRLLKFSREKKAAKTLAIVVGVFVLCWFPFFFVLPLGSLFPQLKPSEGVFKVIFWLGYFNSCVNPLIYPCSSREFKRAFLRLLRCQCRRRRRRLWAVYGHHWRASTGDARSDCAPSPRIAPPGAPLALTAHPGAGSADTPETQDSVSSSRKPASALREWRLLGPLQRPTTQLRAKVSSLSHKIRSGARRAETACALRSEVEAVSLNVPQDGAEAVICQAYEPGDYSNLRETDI
T1 sequence (P43140 whole entry): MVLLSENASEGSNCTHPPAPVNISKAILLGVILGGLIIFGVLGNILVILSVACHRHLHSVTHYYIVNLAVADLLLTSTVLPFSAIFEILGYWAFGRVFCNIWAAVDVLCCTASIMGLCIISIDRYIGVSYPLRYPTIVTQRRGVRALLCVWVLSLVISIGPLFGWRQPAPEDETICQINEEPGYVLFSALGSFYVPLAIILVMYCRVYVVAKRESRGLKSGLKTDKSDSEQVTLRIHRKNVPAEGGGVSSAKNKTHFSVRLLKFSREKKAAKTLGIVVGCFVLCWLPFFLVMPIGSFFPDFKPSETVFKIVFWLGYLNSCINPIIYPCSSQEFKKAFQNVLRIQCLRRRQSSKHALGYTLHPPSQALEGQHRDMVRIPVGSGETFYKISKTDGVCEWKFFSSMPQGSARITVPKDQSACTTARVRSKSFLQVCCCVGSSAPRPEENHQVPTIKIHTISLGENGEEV
Nature of the data set: Displacement of [3H]prazosin from alpha1 adrenergic receptor in rat cerebral cortex by liquid scintillation method. It is filed as tissue-based. A general note: In a radioligand displacement assay an active substance lowers the binding of a labelled ligand.

For data set [4], the system named is Rattus norvegicus. Briefly: Hypotensive activity in anaesthetized normotensive Wistar rat assessed as reduction in methoxamine-induced pressor response at 1 mg/kg, iv after 5 mins. In kind it is functional, organism-based. Set-up: dose 1 mg/kg.
Data set [5] relates to Rattus norvegicus. Briefly: Antiarrhythmic activity against adrenaline-induced arrhythmia in iv dosed anaesthetized Wistar rat assessed as inhibition of premature ventricular beats pretreated 60 mins prior to adrenaline challenge. The conditions noted are these: Heart. In kind it is functional.
The subject of data set [6] is Rattus norvegicus. Nature of the data set: Hypotensive activity in anaesthetized normotensive Wistar rat assessed as reduction in epinephrine-induced pressor response at 1 mg/kg, iv after 5 mins. Set-up: dose 1 mg/kg. In kind it is functional, organism-based.
Data set [7] deals with Rattus norvegicus. Nature of the data set: Effect on electrocardiogram in anaesthetized Wistar rat assessed as change in Q-T interval at 1 mg/kg, iv after 1 min by electrocardiography. In kind it is functional.

Calls of active or inactive are those of the source. The rule behind the calls is not given here.

For `COc1ccccc1OCCNC[C@@H](O)COc1cccc2[nH]ccc12`, the Activity in the data set on Rattus norvegicus [1] is recorded as 21.7 ms; with Rattus norvegicus [7], 63 ms. In data set [2], this compound registered an LD50 of 20.4 mg/kg. The same compound gave a Ki in data set [3] of 88.3 nM. Also, the result with Rattus norvegicus [4] and with Rattus norvegicus [6] was Active. Also, in the data set on Rattus norvegicus [5], the ED50 was found to be 0.43 mg/kg.

Turning to `COc1ccccc1OCCNC[C@H](O)COc1cccc2[nH]ccc12`, the Activity in the data set on Rattus norvegicus [1] was 22.7 ms; in the data set on Rattus norvegicus [7] it was 72.3 ms. The same compound returned an LD50 in data set [2] of 36.2 mg/kg. The compound also showed a Ki in data set [3] of 56.7 nM. For the same compound, the outcome in the data set on Rattus norvegicus [4] and in the data set with Rattus norvegicus [6] was Active. Besides, the ED50 with Rattus norvegicus [5] is 0.059 mg/kg.

Turning to `COc1ccccc1OCCNCC(O)COc1cccc2[nH]ccc12` (racemic), the Activity in the data set on Rattus norvegicus [1] was determined as 26.9 ms; in the data set with Rattus norvegicus [7], 69.2 ms. Besides, the median lethal dose (LD50) in data set [2] turned out to be 20 mg/kg. Further, the Ki in data set [3] worked out at 89.8 nM. Besides, the result with Rattus norvegicus [4] and in the data set with Rattus norvegicus [6] was Active. In the data set on Rattus norvegicus [5], the ED50 amounted to 0.34 mg/kg.

Usually LD50 stands for the dose expected to kill half of the subjects tested. A low value points to a more toxic substance. In general, Ki refers to a dissociation constant, usually derived from enzyme kinetics or from competition with a known ligand. As usually defined, the ED50 is the dose that gives a 50% effect, or the effect in half of the subjects.

Values taken from ChEMBL document CHEMBL1153880, “Synthesis and adrenolytic activity of 1-(1H-indol-4-yloxy)-3-{[2-(2-methoxyphenoxy)ethyl]amino}propan-2-ol and its enantiomers. Part 1” (Eur J Med Chem, 2009).
